From publication PMC6882824, “Engineering of chimeric peptides as antagonists for the G protein-coupled receptor, RXFP4” (Scientific Reports, 2019)
Like-named read-outs stand apart in the source and are kept apart here. Bridge positions count the residues as written; N and C are the ends. Peptide text beside a SMILES is read from it. I, II: the chains in the order shown.

Tests used:
[1] = molecular target: T1, RXFP3 (Homo sapiens, UniProt Q9NSD7); experiment: cAMP antagonist assay against 10 nM analogue 2 in CHO-K1-RXFP3 cells; assay type: cell-based; conditions: SEM; read-out: RXFP3 Emax (antagonist efficacy)
T1 construct: expressed in transfected cells; host or cells: CHO-K1 (ATCC), stably transfected
T1 sequence (Q9NSD7 1-469): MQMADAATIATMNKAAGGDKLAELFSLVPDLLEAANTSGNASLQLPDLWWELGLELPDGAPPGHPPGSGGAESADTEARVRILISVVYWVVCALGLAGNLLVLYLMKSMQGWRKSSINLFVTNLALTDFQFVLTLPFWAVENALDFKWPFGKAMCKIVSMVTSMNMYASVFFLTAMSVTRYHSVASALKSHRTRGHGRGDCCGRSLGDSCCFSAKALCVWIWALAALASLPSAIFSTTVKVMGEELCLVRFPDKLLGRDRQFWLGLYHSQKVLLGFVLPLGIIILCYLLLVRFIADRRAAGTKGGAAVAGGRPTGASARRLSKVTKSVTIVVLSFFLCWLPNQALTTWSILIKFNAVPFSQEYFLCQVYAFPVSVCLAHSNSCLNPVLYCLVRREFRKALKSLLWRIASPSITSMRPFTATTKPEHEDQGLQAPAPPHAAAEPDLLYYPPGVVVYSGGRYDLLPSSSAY
Procedure: (§1) The peptides were tested for their ability to inhibit forskolin induced cAMP activity in CHO-K1-RXFP3 or CHO-K1-RXFP4 cells transfected with a pCRE (cAMP Response Element) β-galactosidase reporter plasmid as previously described[9],[34]. For agonist assays cells were stimulated with forskolin (5 µM for RXFP3, 1 µM for RXFP4) plus or minus increasing concentrations of each peptide for 6 hours. For antagonist assays cells were stimulated with forskolin as in agonist assays plus increasing concentrations of each peptide for 10 minutes followed by stimulation with agonist at an ~EC80 concentration for a further 6 hours (10 nM Analogue 2 for RXFP3 and 16.6 nM Analogue 13 for RXFP4). Each peptide was tested in triplicate and each experiment was performed independently at least three times. Agonist data was expressed as the % Forskolin activity whereby 100% was defined as Forskolin alone and 0% as maximum agonist stimulation (1 µM Analogue 2 for RXFP3 and 1 µM Analogue 13 for RXFP4). […] Data were analysed and plotted using GraphPad PRISM 8 and are expressed as the mean ± SEM of the pooled data. Statistical analysis was conducted using one-way ANOVA with Uncorrected Fisher’s LSD post-hoc analysis in GraphPad Prism version 8.

[2] = molecular target: T2, RXFP4 (Homo sapiens, UniProt Q8TDU9); experiment: cAMP agonist assay (inhibition of forskolin-induced cAMP, pCRE β-galactosidase reporter) in CHO-K1-RXFP4 cells; assay type: cell-based; parameters: expressed in transfected cells; host or cells: CHO-K1 (ATCC), stably transfected; conditions: for RXFP4 Activity pEC50: CHO-K1-RXFP4 cells, inhibition of 1 µM forskolin-induced cAMP, 6 hours, mean ± SEM, n in cell
Procedure: as §1

[3] = molecular target: T2, RXFP4; experiment: cAMP antagonist assay against 16.6 nM analogue 13 in CHO-K1-RXFP4 cells; assay type: cell-based; parameters: expressed in transfected cells; host or cells: CHO-K1 (ATCC), stably transfected; conditions: SEM; read-out: RXFP4 Emax (antagonist efficacy)
Procedure: as §1

[4] = molecular target: T1, RXFP3; experiment: Competition binding in CHO-K1-RXFP3 cells (Eu-H3B1-22R); conditions: CHO-K1 cells stably transfected with RXFP3, competition with 5 nM Eu-H3B1-22R
Procedure: (§2) Chinese hamster ovary CHO-K1 cells (sourced from American Type Culture Collection (ATCC), Maryland, USA) stably transfected with RXFP3[33] or RXFP4[9] were plated out onto precoated poly-L-lysine 96-well view plates at a density of 50 000 cells per well. Medium was aspirated off and the cells were washed with phosphate-buffered saline (PBS) before competition binding assays were performed with 5 nM Eu-H3B1–22R[34] (RXFP3 ligand) or 5 nM Eu-DTPA-mINSL5[9] (RXFP4 ligand) as previously described. Competition binding curves were performed in triplicate and each experiment was performed independently at least three times. Fluorescent measurements were carried out on a BMG POLARstar plate reader (BMG Labtech, Melbourne, Australia. Pooled data are presented as mean ± S.E of specific binding and are fitted using one-site binding curve in GraphPad Prism version 8 (GraphPad Inc., San Diego, USA). Statistical analyses were conducted using one-way analysis of variance with uncorrected Fisher’s least significant difference (LSD) post-hoc analysis in GraphPad Prism version 8.

[5] = molecular target: T2, RXFP4; experiment: Competition binding in CHO-K1-RXFP4 cells (Eu-DTPA-mINSL5); parameters: expressed in transfected cells; host or cells: CHO-K1 (ATCC), stably transfected; conditions: CHO-K1 cells stably transfected with RXFP4, competition with 5 nM Eu-DTPA-mINSL5
Procedure: as §2

[6] = molecular target: T1, RXFP3; experiment: cAMP agonist assay (inhibition of forskolin-induced cAMP, pCRE β-galactosidase reporter) in CHO-K1-RXFP3 cells; assay type: cell-based; conditions: SEM; read-out: RXFP3 Activity pEC50 (converted)
Procedure: as §1

T2 sequence (Q8TDU9 whole entry): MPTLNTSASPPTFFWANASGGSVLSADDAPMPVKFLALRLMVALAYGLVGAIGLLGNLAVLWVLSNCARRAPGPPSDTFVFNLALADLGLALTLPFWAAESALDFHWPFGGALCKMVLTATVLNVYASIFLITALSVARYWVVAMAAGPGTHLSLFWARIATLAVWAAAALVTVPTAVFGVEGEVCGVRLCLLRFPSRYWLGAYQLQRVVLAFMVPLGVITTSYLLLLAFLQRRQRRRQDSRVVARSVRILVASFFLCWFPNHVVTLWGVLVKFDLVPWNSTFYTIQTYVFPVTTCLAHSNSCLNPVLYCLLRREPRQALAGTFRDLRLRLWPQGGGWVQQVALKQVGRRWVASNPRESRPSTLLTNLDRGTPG

Row | SMILES | Emax [1] | RXFP4 Activity pEC50 [2] | Emax [3] | Ki ([4]; mean ± SEM, n in cell, SEM, read-out: RXFP3 Binding pKi (converted)) | Ki ([5]; mean ± SEM, n in cell, SEM, read-out: RXFP4 Binding pKi (converted)) | EC50 [6] | Ki ([4]; read-out: RXFP3 Binding Ki) | Ki ([5]; read-out: RXFP4 Binding Ki) | EC50 [2]
1 | CC[C@H](C)[C@@H]1NC(=O)[C@H](Cc2ccccc2)NC(=O)[C@H]([C@@H](C)CC)NC(=O)[C@H](C(C)C)NC(=O)[C@H]([C@@H](C)O)NC(=O)[C@H](CCCNC(=N)N)NC(=O)[C@H]([C@@H](C)CC)NC(=O)[C@H](Cc2ccccc2)NC(=O)[C@H](CCC(=O)O)NC(=O)[C@H](CC(C)C)NC(=O)CNC(=O)[C@@H](NC(=O)[C@H](CC(C)C)NC(=O)[C@H](CCCNC(=N)N)NC(=O)[C@@H](NC(=O)CNC(=O)[C@H](CCC(=O)O)NC(=O)[C@H](CCCCN)NC(=O)[C@H](C)NC(=O)[C@H](C)NC(=O)[C@@H](N)CCCNC(=N)N)C(C)C)CSSC[C@H](N)C(=O)N[C@@H]([C@@H](C)O)C(=O)N[C@@H](CC(=O)O)C(=O)NCC(=O)N[C@@H](C)C(=O)N[C@@H](CO)C(=O)N[C@@H](CCSC)C(=O)N[C@@H](CCCCN)C(=O)N[C@@H](CC(=O)O)C(=O)N[C@@H](CC(C)C)C(=O)N[C@@H](CO)C(=O)N[C@@H](C)C(=O)N[C@@H](CC(C)C)C(=O)N[C@H](C(=O)O)CSSC[C@@H](C(=O)N[C@@H](CCCNC(=N)N)C(=O)O)NC1=O [Analogue 20] (I: H-RAAKEGVRLCGLEFIRTVIFICR-OH / II: H-CTDGASMKDLSALC-OH; disulfide I:10-II:1, I:22-II:14; N-terminus assumed) | 19.9 ± 2.3% | Weak partial agonist (4) | 8.1 ± 9.5% | – | – | – | – | – | –
2 | CC[C@H](C)[C@@H]1NC(=O)[C@H](Cc2ccccc2)NC(=O)[C@H](CCC(=O)O)NC(=O)[C@H](CCCNC(=N)N)NC(=O)CNC(=O)[C@@H](NC(=O)[C@H](CC(C)C)NC(=O)[C@H](CCCNC(=N)N)NC(=O)[C@@H](NC(=O)CNC(=O)[C@H](Cc2ccc(O)cc2)NC(=O)[C@@H]2CCCN2C(=O)[C@H](C)NC(=O)[C@H](C)NC(=O)[C@@H](N)CCCNC(=N)N)C(C)C)CSSC[C@H](N)C(=O)N[C@@H]([C@@H](C)O)C(=O)N[C@@H](CC(=O)O)C(=O)NCC(=O)N[C@@H](C)C(=O)N[C@@H](CO)C(=O)N[C@@H](CCSC)C(=O)N[C@@H](CCCCN)C(=O)N[C@@H](CC(=O)O)C(=O)N[C@@H](CC(C)C)C(=O)N[C@@H](CO)C(=O)N[C@@H](C)C(=O)N[C@@H](CC(C)C)C(=O)N[C@H](C(=O)O)CSSC[C@@H](C(=O)N[C@@H](CCCNC(=N)N)C(=O)O)NC(=O)[C@H]([C@@H](C)CC)NC(=O)[C@H](Cc2ccccc2)NC(=O)[C@H]([C@@H](C)CC)NC(=O)[C@H](C(C)C)NC(=O)[C@H](C)NC(=O)[C@H](CCCNC(=N)N)NC1=O [Analogue 16] (I: H-RAAPYGVRLCGREFIRAVIFICR-OH / II: H-CTDGASMKDLSALC-OH; disulfide I:10-II:1, I:22-II:14; N-terminus assumed) | 55.8 ± 3.4% | Weak partial agonist (4) | 2.1 ± 4.7% | – | – | – | – | – | –
3 | CC[C@H](C)[C@@H]1NC(=O)[C@H](Cc2ccccc2)NC(=O)[C@H](CCC(=O)O)NC(=O)[C@H](CCCNC(=N)N)NC(=O)CNC(=O)[C@@H](NC(=O)[C@H](CC(C)C)NC(=O)[C@H](CCCNC(=N)N)NC(=O)[C@@H](NC(=O)CNC(=O)[C@H](Cc2ccc(O)cc2)NC(=O)[C@@H]2CCCN2C(=O)[C@H](C)NC(=O)[C@H](C)NC(=O)[C@@H](N)CCCNC(=N)N)C(C)C)CSSC[C@@H]2NC(=O)[C@@H](NC(=O)[C@H](CO)NC(=O)[C@H](CO)NC(=O)[C@H](CO)NC(=O)[C@H](CC(C)C)NC(=O)CNC(=O)[C@H](C)NC(=O)[C@H](CC(C)C)NC(=O)[C@@H](NC(=O)[C@@H](N)CC(=O)O)C(C)C)CSSC[C@H](NC(=O)CNC(=O)[C@H](Cc3c[nH]c4ccccc34)NC(=O)[C@H](CCCCN)NC2=O)C(=O)N[C@@H](CO)C(=O)N[C@@H](CCCCN)C(=O)N[C@@H](CO)C(=O)N[C@@H](CCC(=O)O)C(=O)N[C@@H]([C@@H](C)CC)C(=O)N[C@@H](CO)C(=O)N[C@@H](CO)C(=O)N[C@@H](CC(C)C)C(=O)N[C@H](C(=O)O)CSSC[C@@H](C(=O)NCC(=O)NCC(=O)N[C@@H](CO)C(=O)N[C@@H](CCCNC(=N)N)C(=O)N[C@@H](Cc2c[nH]c3ccccc23)C(=O)O)NC(=O)[C@H]([C@@H](C)O)NC(=O)[C@H](Cc2ccccc2)NC(=O)[C@H]([C@@H](C)CC)NC(=O)[C@H](C(C)C)NC(=O)[C@H](C)NC(=O)[C@H](CCCNC(=N)N)NC1=O [Relaxin 3 (R3), reference compound] | – | – | – | 22.9 nM | 2.29 nM | 0.832 nM | – | – | –
4 | CC[C@H](C)[C@@H]1NC(=O)[C@H](Cc2ccccc2)NC(=O)[C@H](CCC(=O)O)NC(=O)[C@H](CCCNC(=N)N)NC(=O)CNC(=O)[C@@H](NC(=O)[C@H](CC(C)C)NC(=O)[C@H](CCCNC(=N)N)NC(=O)[C@@H](NC(=O)CNC(=O)[C@H](Cc2ccc(O)cc2)NC(=O)[C@@H]2CCCN2C(=O)[C@H](C)NC(=O)[C@H](C)NC(=O)[C@@H](N)CCCNC(=N)N)C(C)C)CSSC[C@H](N)C(=O)N[C@@H](CCCCN)C(=O)N[C@@H](Cc2c[nH]c3ccccc23)C(=O)NCC(=O)N[C@@H](CO)C(=O)N[C@@H](C)C(=O)N[C@@H](CCCCN)C(=O)N[C@@H](CO)C(=O)N[C@@H](CCC(=O)O)C(=O)N[C@@H]([C@@H](C)CC)C(=O)N[C@@H](CO)C(=O)N[C@@H](CO)C(=O)N[C@@H](CC(C)C)C(=O)N[C@H](C(=O)O)CSSC[C@@H](C(=O)NCC(=O)NCC(=O)N[C@@H](CO)C(=O)N[C@@H](CCCNC(=N)N)C(=O)N[C@@H](Cc2c[nH]c3ccccc23)C(=O)O)NC(=O)[C@H]([C@@H](C)O)NC(=O)[C@H](Cc2ccccc2)NC(=O)[C@H]([C@@H](C)CC)NC(=O)[C@H](C(C)C)NC(=O)[C@H](C)NC(=O)[C@H](CCCNC(=N)N)NC1=O [Analogue 2, reference compound] | – | – | – | – | – | 3.72 nM | 19.1 nM | 79.4 nM | 19.9 nM
